Experimental data as given in ChEMBL document CHEMBL1127820 (J Med Chem, 1994).

Columns and labels:
[1] = biological target: Sodium-dependent dopamine transporter (Rattus norvegicus, UniProt P23977); experiment: Inhibition of [3H]WIN-35428 binding to dopamine (DA) transporter
[2] = biological target: Norepinephrine transporter (Rattus norvegicus, UniProt Q9WTR4); experiment: Inhibition of [3H]nisoxetine binding to norepinephrine (NE) transporter
[3] = biological target: Sodium-dependent serotonin transporter (Rattus norvegicus, UniProt P31652); experiment: Inhibition of [3H]paroxetine binding to 5-hydroxytryptamine (5-HT) transporter
Sodium-dependent serotonin transporter, sequence (P31652 whole entry): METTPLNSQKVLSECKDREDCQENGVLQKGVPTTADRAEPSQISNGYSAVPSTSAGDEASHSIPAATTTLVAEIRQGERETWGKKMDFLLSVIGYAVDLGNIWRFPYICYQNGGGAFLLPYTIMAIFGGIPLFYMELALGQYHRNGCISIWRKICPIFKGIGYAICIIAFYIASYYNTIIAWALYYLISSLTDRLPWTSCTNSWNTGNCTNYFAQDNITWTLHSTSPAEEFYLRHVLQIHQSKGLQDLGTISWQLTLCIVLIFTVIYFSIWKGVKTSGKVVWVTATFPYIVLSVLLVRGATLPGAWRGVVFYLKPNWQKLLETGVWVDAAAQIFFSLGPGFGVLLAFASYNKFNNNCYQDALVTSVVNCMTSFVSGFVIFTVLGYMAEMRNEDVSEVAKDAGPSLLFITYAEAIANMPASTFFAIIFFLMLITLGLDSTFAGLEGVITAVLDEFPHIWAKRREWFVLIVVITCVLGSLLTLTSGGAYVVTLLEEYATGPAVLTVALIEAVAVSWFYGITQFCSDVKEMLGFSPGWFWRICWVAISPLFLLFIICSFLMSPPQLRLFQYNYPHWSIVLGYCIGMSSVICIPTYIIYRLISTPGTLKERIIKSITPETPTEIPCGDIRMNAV

Sodium-dependent dopamine transporter, sequence (P23977 whole entry): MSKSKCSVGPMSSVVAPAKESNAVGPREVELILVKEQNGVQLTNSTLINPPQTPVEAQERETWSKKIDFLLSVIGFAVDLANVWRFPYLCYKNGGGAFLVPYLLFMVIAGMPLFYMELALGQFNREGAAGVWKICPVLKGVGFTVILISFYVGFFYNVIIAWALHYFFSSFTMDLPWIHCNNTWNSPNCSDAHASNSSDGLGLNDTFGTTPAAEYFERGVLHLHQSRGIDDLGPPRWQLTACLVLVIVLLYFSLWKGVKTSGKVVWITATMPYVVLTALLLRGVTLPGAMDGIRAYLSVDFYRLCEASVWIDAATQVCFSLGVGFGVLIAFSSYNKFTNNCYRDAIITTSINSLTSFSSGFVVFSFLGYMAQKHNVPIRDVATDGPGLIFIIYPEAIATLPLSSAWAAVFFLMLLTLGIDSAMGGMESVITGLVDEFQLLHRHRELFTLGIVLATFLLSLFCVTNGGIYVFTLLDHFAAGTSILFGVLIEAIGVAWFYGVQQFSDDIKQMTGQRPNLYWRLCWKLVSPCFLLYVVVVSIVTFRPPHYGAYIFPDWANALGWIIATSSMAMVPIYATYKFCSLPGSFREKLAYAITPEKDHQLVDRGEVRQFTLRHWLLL
Norepinephrine transporter, sequence (Q9WTR4 whole entry): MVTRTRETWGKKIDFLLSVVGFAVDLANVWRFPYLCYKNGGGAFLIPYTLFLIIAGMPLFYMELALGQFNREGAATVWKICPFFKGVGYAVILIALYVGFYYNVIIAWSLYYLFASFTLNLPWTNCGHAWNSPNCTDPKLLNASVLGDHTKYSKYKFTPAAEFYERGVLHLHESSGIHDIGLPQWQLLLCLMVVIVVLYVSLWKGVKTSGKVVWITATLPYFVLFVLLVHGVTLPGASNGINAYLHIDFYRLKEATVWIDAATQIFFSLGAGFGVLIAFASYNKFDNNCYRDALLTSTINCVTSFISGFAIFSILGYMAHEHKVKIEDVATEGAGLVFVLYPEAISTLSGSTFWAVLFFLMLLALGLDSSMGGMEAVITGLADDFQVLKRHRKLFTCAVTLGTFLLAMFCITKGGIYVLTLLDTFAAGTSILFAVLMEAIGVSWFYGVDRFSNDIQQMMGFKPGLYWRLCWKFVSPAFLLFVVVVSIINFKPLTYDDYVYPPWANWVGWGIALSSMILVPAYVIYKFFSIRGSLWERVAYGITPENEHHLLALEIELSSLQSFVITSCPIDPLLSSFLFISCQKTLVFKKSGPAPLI

SMILES	IC50 [1] [nM]	IC50 [2] [nM]	IC50 [3] [nM]
CCc1ccc([C@H]2C[C@H]3CCC(C2C(=O)OC)N3C)cc1 (stereo not given in full)	55	3910	28.4
CCc1ccc([C@H]2C[C@H]3CCC(N3)[C@H]2C(=O)OC)cc1	49.9	122	8.13
COC(=O)C1C2CCC(C[C@@H]1c1ccc(Cl)cc1)N2 (stereo not given in full)	0.62	5.45	4.13
CC(C)OC(=O)[C@@H]1C2CC[C@H](C[C@@H]1c1ccc(I)cc1)N2	1.06	132	3.59
COC(=O)C1C2CCC(C[C@@H]1c1ccc(F)cc1)N2 (stereo not given in full)	4.39	18.8	68.6
CC(C)OC(=O)C1C2CC[C@H](C[C@@H]1c1ccc(I)cc1)N2C (stereo not given in full)	0.43	285	66.8
COC(=O)C1C2CCC(C[C@@H]1OC(=O)c1ccccc1)N2 (stereo not given in full)	206	139	127
COC(=O)C1C2CC[C@H](C[C@@H]1c1ccc(I)cc1)N2C (stereo not given in full)		36	4.21
COC(=O)C1C2CCC(C[C@@H]1c1ccccc1)N2 (stereo not given in full)	30.8	84.5	156
COC(=O)[C@@H]1C2CC[C@H](C[C@@H]1c1ccc(I)cc1)N2	0.69	7.54	0.36
COC(=O)[C@H]1[C@@H](c2ccc(F)cc2)C[C@H]2CC[C@H]1N2C		834	
